Data on 1 compound can be found in article PMC10686828, “DMSOP-cleaving enzymes are diverse and widely distributed in marine microorganisms” (Nature Microbiology, 2023).

The term Km denotes the substrate concentration at which the rate is half of its maximum.

One assay has as its system T1, DddL.
T1 construct: pET-22b, C-terminal His tag, E. coli BL21(DE3)
As to the kind of experiment: HPLC of acrylate, initial rates, non-linear fit. It is filed as biochemical. Conditions: pH 8, 30 °C.

Assay [1] deals with T2, DddY (Acinetobacter bereziniae) (Acinetobacter bereziniae, UniProt N8X9V6).
T2 construct: gene F963_02809; pET-22b, C-terminal His tag, E. coli BL21(DE3); Ni-NTA and gel filtration
T2 sequence (N8X9V6 22-401 limits assumed): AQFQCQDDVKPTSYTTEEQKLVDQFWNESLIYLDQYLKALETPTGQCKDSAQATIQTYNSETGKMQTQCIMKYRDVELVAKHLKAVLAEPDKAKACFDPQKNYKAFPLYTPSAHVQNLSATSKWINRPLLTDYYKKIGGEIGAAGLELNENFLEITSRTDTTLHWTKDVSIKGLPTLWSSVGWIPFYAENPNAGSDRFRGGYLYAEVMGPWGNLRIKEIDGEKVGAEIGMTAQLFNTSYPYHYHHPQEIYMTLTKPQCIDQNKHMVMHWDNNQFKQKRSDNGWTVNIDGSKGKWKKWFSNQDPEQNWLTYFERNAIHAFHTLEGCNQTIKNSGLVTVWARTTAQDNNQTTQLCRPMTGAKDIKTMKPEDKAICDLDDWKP
In words: HPLC of DMSO and acrylate. As to conditions: 5 mM DMSOP, pH 8.0, 30 °C. It is filed as biochemical.

Structures are written as SMILES.

Turning to `C[S+](C)(=O)CCC(=O)[O-]` [DMSOP], the Km in the assay on DddL is 65 ± 10.9 mM. The “HPLC of DMSO and acrylate” value in assay [1] was “purified DddY proteins yielded DMSO and acrylate from DMSOP”.
